Among the data in ChEMBL document CHEMBL4808204, “Discovery of non-proteinogenic amino acids inhibiting biofilm formation by S. aureus and methicillin-resistant S. aureus” (Bioorg Med Chem Lett, 2021) are Activity, Biofilm formation and inhibition values, retold here.

Data set [1] deals with Staphylococcus aureus. The data set is described as follows: Antibacterial activity in Staphylococcus aureus assessed as bacterial growth rate at 100 uM measured by UV absorbance based analysis. Format: functional.
The subject of data set [2] is Staphylococcus aureus. Kind of data set: Antibiofilm activity against Staphylococcus aureus assessed as biofilm formation at 100 uM measured by crystal violet staining based microplate reader assay. Format: functional.
The test system of data set [3] is Staphylococcus aureus. Kind of data set: Antibiofilm activity against Staphylococcus aureus assessed as inhibition of biofilm formation at 66 uM. Format: functional.
For data set [4], the system named is Pseudomonas aeruginosa. Kind of data set: Antibiofilm activity against Pseudomonas aeruginosa assessed as inhibition of biofilm formation at 100 uM. In kind it is functional.
Data set [5] deals with Staphylococcus aureus. The data set is described as follows: Antibiofilm activity against methicillin-resistant Staphylococcus aureus assessed as inhibition of biofilm formation by UV absorbance based analysis. Format: functional, organism-based. The settings on record: dose 1-100 µM.
Data set [6] relates to Pseudomonas aeruginosa. The data set is described as follows: Antibiofilm activity against Pseudomonas aeruginosa assessed as inhibition of biofilm formation at 100 uM measured by crystal violet staining based microplate reader assay. In kind it is functional, organism-based.
The test system of a further data set is HeLa. The data set is described as follows: Cytotoxicity against human HeLa cells at 1 to 100 uM by WST8 assay. In kind it is cell-based. Conditions: dose 1-100 µM. Background: Tetrazolium assays rely on reduction of a dye to a coloured formazan, in cell work by metabolically active cells.
The next data set relates to Acinetobacter baumannii. Kind of data set: Antibiofilm activity against Acinetobacter baumannii assessed as inhibition of biofilm formation at 1 to 100 uM by UV absorbance based analysis. Format: functional, organism-based. The settings on record: dose 1-100 µM.
Data set [7] deals with Staphylococcus aureus. Kind of data set: Antibiofilm activity against Staphylococcus aureus assessed as inhibition of attachment of biofilm on the bacterial surface at 1 to 100 uM. The settings on record: dose 1-100 µM. Format: functional, organism-based.
Data set [8] concerns Pseudomonas aeruginosa. The data set is described as follows: Antibiofilm activity against Pseudomonas aeruginosa assessed as inhibition of biofilm formation at 1 to 100 uM by UV absorbance based analysis. In kind it is functional, organism-based. Conditions: dose 1-100 µM.
In data set [9] the test system is Staphylococcus epidermidis. The data set is described as follows: Antibiofilm activity against Staphylococcus epidermidis assessed as inhibition of biofilm formation at 1 to 100 uM by UV absorbance based analysis. Format: functional, organism-based. Conditions: dose 1-100 µM.
The next data set relates to Listeria monocytogenes. Kind of data set: Antibiofilm activity against Listeria monocytogenes assessed as inhibition of biofilm formation by UV absorbance based analysis. Conditions: dose 1-100 µM. In kind it is functional, organism-based.
The next data set has as its system Escherichia coli. Kind of data set: Antibiofilm activity against Escherichia coli assessed as inhibition of biofilm formation at 1 to 100 uM by UV absorbance based analysis. In kind it is functional, organism-based. Conditions: dose 1-100 µM.
Data set [10] concerns Staphylococcus aureus. Kind of data set: Antibiofilm activity against Staphylococcus aureus assessed as inhibition of biofilm formation by UV absorbance based analysis. Format: functional, organism-based. The settings on record: dose 1-100 µM.
The subject of another data set is Streptococcus mutans. The data set is described as follows: Antibiofilm activity against Streptococcus mutans assessed as inhibition of biofilm formation at 1 to 100 uM by UV absorbance based analysis. Conditions: dose 1-100 µM. Format: functional, organism-based.
The test system of data set [11] is Staphylococcus aureus. Kind of data set: Antibiofilm activity against Staphylococcus aureus assessed as inhibition of biofilm formation at 10 uM measured by crystal violet staining based microplate reader assay. In kind it is functional.
For data set [12], the system named is Staphylococcus aureus. The data set is described as follows: Antibiofilm activity against Staphylococcus aureus assessed as inhibition of biofilm formation at 60 uM. Format: functional.
The subject of data set [13] is Staphylococcus aureus. Kind of data set: Antibiofilm activity against Staphylococcus aureus assessed as inhibition of biofilm formation at 500 uM. Format: functional.
The subject of data set [14] is Staphylococcus aureus. The data set is described as follows: Antibiofilm activity against Staphylococcus aureus assessed as inhibition of biofilm formation at 100 uM. Format: functional.

Calls of active or inactive are those of the source. No cut-off for these calls is given here.

For orientation: inhibition means the relative decrease from the control value, in per cent.

As to `N[C@@H](Cc1ccc(F)c(F)c1)C(=O)O`, the Activity in the data set with Staphylococcus aureus [1] was 145%. In the data set on Staphylococcus aureus [2], the Biofilm formation was determined as 31%.

Take `N[C@@H](Cc1ccc(Cl)c(Cl)c1)C(=O)O`: in the data set on Staphylococcus aureus [1], the Activity turned out to be 117%. For the same compound, in the data set with Staphylococcus aureus [2], the Biofilm formation amounted to 46%.

Turning to `O=c1c(O)c(-c2ccc(O)c(O)c2)oc2cc(O)cc(O)c12` [QUERCETIN], in the data set on Staphylococcus aureus [3], the inhibition at 66 µM was over 70%. Moreover, in the data set on Pseudomonas aeruginosa [4], the inhibition at 100 µM was over 70%.

As to `NC(Cc1cc(Br)c(O)c(Br)c1)C(=O)O` (configuration not stated), the Activity in the data set on Staphylococcus aureus [1] was 72%. Besides, the Biofilm formation with Staphylococcus aureus [2] came to 6%.

For `NC(Cc1ccc(Oc2ccc(O)cc2)cc1)C(=O)O` (configuration not stated), the Activity with Staphylococcus aureus [1] came to 106%. Also, in the data set with Staphylococcus aureus [2], the Biofilm formation came to 15%.

Turning to `NC(C(=O)O)C(O)c1ccc(O)c(O)c1` (configuration not stated), the Activity entry in the data set on Staphylococcus aureus [5] is “Dose-Dependent Effect”; in the data set with HeLa it was “Non-Toxic”; in the data set with Staphylococcus aureus [1] it was 104%; with Listeria monocytogenes, “Dose-Dependent Effect”; in the data set with Staphylococcus aureus [10] it was “Dose-Dependent Effect”. For the same compound, the outcome (in the data set on Pseudomonas aeruginosa [6]; in the data set on Acinetobacter baumannii; in the data set on Staphylococcus aureus [7]; in the data set with Pseudomonas aeruginosa [8]; in [9]; in the data set on Escherichia coli) was inactive. Besides, in the data set with Streptococcus mutans, the outcome was inactive. In the data set on Staphylococcus aureus [2], the Biofilm formation is 12%. Besides, the inhibition at 10 µM in the data set on Staphylococcus aureus [11] worked out at 53%.

Take `CC(C)c1ccc2c(c1)CC[C@H]1[C@](C)(C(=O)O)CCC[C@]21C` [DEHYDROABIETIC ACID]: in the data set on Staphylococcus aureus [12], the inhibition at 60 µM was 90%.

As to `NCCc1ccc(O)c(O)c1` [DOPAMINE], the results for the Activity in the data set on Staphylococcus aureus [1] and with Staphylococcus aureus [2] were 98% and 79%, respectively.

For the compound `CNC[C@H](O)c1ccc(O)c(O)c1` [EPINEPHRINE], the Activity in the data set on Staphylococcus aureus [1] is recorded as 79%; with Staphylococcus aureus [2], 77%.

With `NC(Cc1cc(I)c(O)c(I)c1)C(=O)O` (configuration not stated), in the data set with Staphylococcus aureus [1], the Activity was 26%. Moreover, the Biofilm formation with Staphylococcus aureus [2] is 5%.

Turning to `O=C(O)[C@H]1CCCN1` [D-PROLINE], in the data set on Staphylococcus aureus [13], the inhibition at 500 µM was over 70%.

As for `NC(C(=O)O)C(O)c1ccccc1` (configuration not stated), the Activity in the data set with Staphylococcus aureus [1] turned out to be 97%. For the same compound, the Biofilm formation in the data set on Staphylococcus aureus [2] is on record as 101%.

On to `Oc1ccccc1O` [CATECHOL], for which the Activity in the data set on Staphylococcus aureus [1] is on record as 106%. In addition, the Biofilm formation in the data set with Staphylococcus aureus [2] is 84%.

For the compound `CCCCCCCCCCCCCC(=O)NCC(=O)O`, the Activity in the data set with Staphylococcus aureus [1] came out at 38%. In addition, the Biofilm formation with Staphylococcus aureus [2] is 4%.

In the case of `N[C@H](Cc1ccccc1)C(=O)O` [D-PHENYLALANINE], the inhibition at 500 µM in the data set on Staphylococcus aureus [13] is over 70%.

As for `N[C@@H](Cc1ccc(O)c(O)c1)C(=O)O` [LEVODOPA], in the data set with Staphylococcus aureus [1], the Activity is on record as 84%. Besides, the Biofilm formation in the data set on Staphylococcus aureus [2] turned out to be 32%.

`N[C@H](CO)C(=O)O` [(D)-SERINE]: in the data set with Staphylococcus aureus [1], the Activity is given as 85%. For the same compound, the Biofilm formation with Staphylococcus aureus [2] came to 83%.

Turning to `N[C@@H](Cc1ccc(O)c([N+](=O)[O-])c1)C(=O)O`, in the data set with Staphylococcus aureus [1], the Activity amounted to 80%. For the same compound, in the data set on Staphylococcus aureus [2], the Biofilm formation is listed as 16%.

As for `OCc1ccc(O)c(O)c1`, the Activity with Staphylococcus aureus [1] is 104%. Further, the Biofilm formation in the data set on Staphylococcus aureus [2] came to 107%.

For the compound `N[C@H](Cc1ccc(O)cc1)C(=O)O`, the Activity with Staphylococcus aureus [1] is given as 119%. Moreover, in the data set on Staphylococcus aureus [2], the Biofilm formation turned out to be 85%. In addition, in the data set on Staphylococcus aureus [14], the inhibition at 100 µM was over 70%.

Consider `NC(Cc1cc(I)c(Oc2ccc(O)c(I)c2)c(I)c1)C(=O)[O-].[Na+]` (configuration not stated), for which the Activity in the data set with Staphylococcus aureus [1] is listed as 18%. For the same compound, the Biofilm formation in the data set with Staphylococcus aureus [2] was determined as 2%.
